Legend:
[1] = target: HSP90a (Homo sapiens, UniProt P07900); assay: In vitro Hsp90 assay (Reaction Biology Corp.); format: biochemical; settings: 10-dose IC50 mode, 3-fold serial dilution starting at 10 μM, single experiment; '-' read as no inhibition
Method: The HSP90 inhibitory activity of the synthesized adduct was assessed by Reaction Biology Corporation Malvern, PA. (http://www.reactionbiology.com).

[2] = test system: Pt3R cells; assay: Itraq-based proteomics analysis of global protein expression; format: cell-based, human; settings: 2 μM
Source text: Having identified the desired chemical probe 7, we assessed global protein expression using Itraq-based proteomics analysis to estimate whether 7 suppresses HSP90 (Pt3R cell lines). […] This observation is aligned with the results attained with geldanamycin treatment (a well-known HSP90 inhibitor)[49],[50] and confirms the HSP90-suppressive activity of compound 7 in GBM cells.
RNA was isolated using the RNA extracting kit (Zymo Research, Irvine, CA) and subjected to RNA-seq serviced by BIOTOOLS Co., Ltd. (New Taipei City, Taiwan). Cell pellets were collected and subjected to proteomic analysis serviced by BIOTOOLS Co., Ltd. The comparison in gene expression between Pt3 and Pt3R was performed using RNA seq and described previously.[60]

[3] = test system: TMZ-resistant cells (Pt3R); assay: Cell viability CCK8 assay; format: cell-based, human; settings: Homo sapiens, 72 h, CCK8, read-out: IC50, cell growth inhibitory effects
Source text: The CCK8 reagent was purchased from TargetMOI (Wellesley Hills, MA) and used according to the manufacturer’s instruction.

[4] = test system: Pt#3-R-induced tumor; assay: In vivo anti-GBM efficacy, Pt3R xenograft; settings: 20 mg/kg, intraperitoneally twice per week, NOD.CB17-Prkdc scid mice
Method: In vivo anti-GBM efficacy of compound 7 was also evaluated in this study. For the in vivo study, experimental NOD.CB17-Prkdc^scid/NCrCrl mice (8-week-old) were used and Pt3R cells (1 × 10^6) in 50 μL Dulbecco’s modified Eagle’s medium (DMEM) were injected into the back of mice. After 10 days, the tumor was detectable. […] In a nutshell, the outcome of the in vivo study ascertains that the remarkable in vitro anti-GBM activity profile of dual inhibitor 7 was translated to the in vivo potential.
Animal experiments were approved by the institutional animal care and use committee of Taipei Medical University (IACUC: LAC2022-0288). Male NOD.CB17-Prkdc^scid/NCrCrl mice (8-week-old) were purchased from BioLASCO Taiwan Co., Ltd. (Taipei, Taiwan). Pt3R cells (1 × 10^6) in 50 μL of DMEM were injected into the back of mice. Experimental mice were grouped as follows (Figure 11): DMSO (n = 5), C7–10 mg/kg (n = 4), C7–20 mg/kg (n = 6), TAZ-10 mg/kg (n = 6), TAZ-20 mg/kg (n = 8), STA-5+TAZ-5 mg/kg (n = 7), STA-10+TAZ-10 mg/kg (n = 7) and STA-15+TAZ-15 mg/kg (n = 7). After 10 days, the tumor was touchable. Mice were injected intraperitoneally with DMSO (the control group) or compounds twice per week.

SMILES: CCN(c1cc(-c2cccc(N(C)C(=O)c3cc(C(C)C)c(O)cc3O)c2)cc(C(=O)NCc2c(C)cc(C)[nH]c2=O)c1C)C1CCOCC1 [Compound 7, 3′-(2,4-Dihydroxy-5-isopropyl-N-methylbenzamido)-N-((4,6-dimethyl-2-oxo-1,2-dihydropyridin-3-yl)methyl)-5-(ethyl(tetrahydro-2H-pyran-4-yl)amino)-4-methyl-[1,1′-biphenyl]-3-carboxamide]
- IC50 [1]: 60.1 nM
- C7/DMSO, ANXA5 (P08758) ([2]; protein decreased): 0.406
- C7/DMSO, CORO1C (Q9ULV4) ([2]; protein decreased): 0.410
- C7/DMSO, CYB5B (O43169) ([2]; protein decreased): 0.568
- C7/DMSO, DDX6 (P26196) ([2]; protein decreased): 0.596
- C7/DMSO, DDX39A (O00148) ([2]; protein decreased): 0.515
- C7/DMSO, EIF3I (Q13347) ([2]; protein decreased): 0.624
- C7/DMSO, GNB2 (P62879) ([2]; protein decreased): 0.628
- C7/DMSO, H1–2 (P16403) ([2]; protein decreased): 0.334
- C7/DMSO, H2AZ1 (P0C0S5) ([2]; protein decreased): 0.603
- C7/DMSO, H2BC11 (P06899) ([2]; protein decreased): 0.423
- C7/DMSO, H2BC12 (O60814) ([2]; protein decreased): 0.419
- C7/DMSO, H4C1 (P62805) ([2]; protein decreased): 0.556
- C7/DMSO, HADHB (P55084) ([2]; protein decreased): 0.591
- C7/DMSO, HIST1H2AH (Q96KK5) ([2]; protein decreased): 0.245
- C7/DMSO, HIST2H3A (Q71DI3) ([2]; protein decreased): 0.240
- C7/DMSO, HMGB2 (P26583) ([2]; protein decreased): 0.575
- C7/DMSO, HMGB3 (O15347) ([2]; protein decreased): 0.573
- C7/DMSO, HNRNPA3 (P51991) ([2]; protein decreased): 0.377
- C7/DMSO, ILF3 (Q12906) ([2]; protein decreased): 0.645
- C7/DMSO, MCM3 (P25205) ([2]; protein decreased): 0.635
- C7/DMSO, MCM7 (P33993) ([2]; protein decreased): 0.586
- C7/DMSO, NASP (P49321) ([2]; protein decreased): 0.604
- C7/DMSO, NT5E (P21589) ([2]; protein decreased): 0.446
- C7/DMSO, PA2G4 (Q9UQ80) ([2]; protein decreased): 0.628
- C7/DMSO, PCBP1 (Q15365) ([2]; protein decreased): 0.628
- C7/DMSO, PTGES3 (Q15185) ([2]; protein decreased): 0.589
- C7/DMSO, RACK1 (P63244) ([2]; protein decreased): 0.627
- C7/DMSO, RPL26 (P61254) ([2]; protein decreased): 0.619
- C7/DMSO, RPL35 (P42766) ([2]; protein decreased): 0.629
- C7/DMSO, RPS6 (P62753) ([2]; protein decreased): 0.641
- C7/DMSO, RPS10 (P46783) ([2]; protein decreased): 0.608
- C7/DMSO, S100A13 (Q99584) ([2]; protein decreased): 0.638
- C7/DMSO, SERPINB6 (P35237) ([2]; protein decreased): 0.632
- C7/DMSO, SRSF7 (Q16629) ([2]; protein decreased): 0.605
- C7/DMSO, TAF15 (Q92804) ([2]; protein decreased): 0.609
- C7/DMSO, TNS3 (Q68CZ2) ([2]; protein decreased): 0.582
- C7/DMSO, TUBB4B (P68371) ([2]; protein decreased): 0.564
- C7/DMSO, TXNDC5 (Q8NBS9) ([2]; protein decreased): 0.635
- C7/DMSO, YWHAG (P61981) ([2]; protein decreased): 0.447
- C7/DMSO, ACTB (P60709) ([2]; protein increased): 1.657
- C7/DMSO, ARF3 (P61204) ([2]; protein increased): 1.944
- C7/DMSO, ATP5IF1 (Q9UII2) ([2]; protein increased): 1.646
- C7/DMSO, ATP6 V1E1 (P36543) ([2]; protein increased): 1.599
- C7/DMSO, CLIC1 (O00299) ([2]; protein increased): 2.598
- C7/DMSO, CTNNB1 (P35222) ([2]; protein increased): 1.550
- C7/DMSO, EEF1B2 (P24534) ([2]; protein increased): 1.792
- C7/DMSO, EHD1 (Q9H4M9) ([2]; protein increased): 1.555
- C7/DMSO, GIPC1 (O14908) ([2]; protein increased): 1.699
- C7/DMSO, HK1 (P19367) ([2]; protein increased): 1.921
- C7/DMSO, HSP90AA1 (P07900) ([2]; protein increased): 1.958
- C7/DMSO, HSPA1A (P0DMV8) ([2]; protein increased): 2.843
- C7/DMSO, HSPA4 (P34932) ([2]; protein increased): 1.561
- C7/DMSO, HSPA8 (P11142) ([2]; protein increased): 2.096
- C7/DMSO, HSPB1 (P04792) ([2]; protein increased): 1.661
- C7/DMSO, HSPE1 (P61604) ([2]; protein increased): 1.710
- C7/DMSO, HSPH1 (Q92598) ([2]; protein increased): 1.642
- C7/DMSO, LRPAP1 (P30533) ([2]; protein increased): 1.667
- C7/DMSO, NME1 (P15531) ([2]; protein increased): 3.299
- C7/DMSO, OCIAD2 (Q56VL3) ([2]; protein increased): 2.150
- C7/DMSO, OLA1 (Q9NTK5) ([2]; protein increased): 1.745
- C7/DMSO, P4HA2 (O15460) ([2]; protein increased): 1.588
- C7/DMSO, PSMD3 (O43242) ([2]; protein increased): 1.801
- C7/DMSO, PSMD14 (O00487) ([2]; protein increased): 1.579
- C7/DMSO, S100A10 (P60903) ([2]; protein increased): 1.664
- C7/DMSO, SERPINE1 (P05121) ([2]; protein increased): 4.203
- C7/DMSO, SERPINH1 (P50454) ([2]; protein increased): 2.186
- C7/DMSO, TWF1 (Q12792) ([2]; protein increased): 1.995
- C7/DMSO, ZYX (Q15942) ([2]; protein increased): 1.903
- IC50 [3]: 1010 ± 690 nM
- growth of Pt#3-R-induced tumor [4]: significantly decreased the growth
